Assay results taken from PubChem BioAssay AID1963871 (Molecular Pharmacology Branch, DTP, NCI, 2024).

Tested on: KRAS-mutant PDC multicell tumor spheroid viability
Test: Anticancer human tumor 521955-158-R2-J5-PDC patient-derived pancreatic carcinoma cell line growth inhibition [KRAS2]
Conditions: for IC50: curve of first compound; for viability, T/C: stronger effect = lower value
Text: Multicellular complex tumor spheroid response to RAS pathway inhibitors in combination with a targeted agents in patient-derived cell lines with oncogenic KRAS variants from multiple cancer types
A high-throughput screen of multi-cell type tumor spheroids was designed to identify active combinations of targeted small molecules and KRAS pathway inhibitors. Complex spheroids include a stromal component modeled by human endothelial cells (HUVEC) and fibroblasts modeled by human mesenchymal stem cells (MSCs). The concentration ranges selected for each drug and investigational agent were based upon clinically achievable concentrations if the clinical Cmax of the agent was known.
Compounds. The drugs and investigational agents: BI-3406 (NSC825286), BAY-293 (NSC824723), batoprotafib (TNO155; NSC825523), sotorasib (AMG 510; NSC818433), MRTX1257 (NSC819558), elimusertib (BAY 1895344; NSC800525), molibresib (GSK525762; NSC774829), temuterkib (LY3214996; NSC803410), venetoclax (NSC766270), alisertib (NSC759677), olaparib (NSC753686), talazoparib (NSC767125), erdafitinib (NSC781556), ipatasertib (NSC767898), cabozantinib (NSC761068), nintedanib (NSC756659), abemaciclib (NSC768073), docetaxel (NSC628503), trametinib (NSC758246), and sapanisertib (NSC764658) were obtained from the National Cancer Institute (NCI) Developmental Therapeutics Program Chemical Repository. The FDA-approved anticancer drug set is available from the Developmental Therapeutics Program. […] The stock solutions were prepared in dimethyl sulfoxide (DMSO, Sigma-Aldrich, St. Louis, MO, cat. D2650) at 800-fold the tested concentration and stored at -70 degrees C prior to their use. All drugs and investigational agents were tested over a range starting from a high concentration at or near the clinical Cmax and decreasing in half-log increments. If the clinical Cmax for an agent had not been determined, the highest concentration tested was 10 microM.
Cell Culture. All cells were maintained in an incubator at 37 degrees C and 5% CO2 with 95% humidity. The PDC lines were cultured according to standard operating procedures established by the NCI PDMR (https://pdmr.cancer.gov/sops/default.htm). Briefly, all PDCs were thawed and cultured in Matrigel-coated flasks prepared with a working solution of 1X Ham's F-12 nutrient mix, without supplementation (Invitrogen, Waltham, MA, cat. 11765054), 100 U/mL penicillin-streptomycin (Invitrogen, cat. 15140122), and 2.5% Matrigel (Corning Inc., Corning, NY, cat. 354248) for the first three passages. All PDCs were cultured in complete DMEM/F-12 media containing advanced DMEM/F-12 (Invitrogen, cat. 12634028), 4.9% defined fetal bovine serum, heat inactivated (HyClone Laboratories Inc., Logan, UT, cat. SH30070.03HI), 389 ng/mL hydrocortisone (Sigma-Aldrich, cat. H4001), 9.7 ng/mL human EGF recombinant protein (Invitrogen, cat. PHG0313), 23.4 microg/mL adenine (Sigma-Aldrich, cat. A2786), 97.3 U/mL penicillin-streptomycin (Invitrogen, cat. 15140122), 1.9 mM L-glutamine (Invitrogen, cat. 25030081), and 9.7 microM Y-27632 dihydrochloride (Tocris Bioscience, Bristol, United Kingdom, cat. 1254). The PDCs were cultured in complete DMEM/F12 media without 9.7 microM Y-27632 dihydrochloride for at least two passages prior to the screen. The established cell line HOP-62 was cultured in RPMI 1640 medium, HEPES (Invitrogen, cat. 22400105) with 10% defined fetal bovine serum (HyClone Laboratories Inc., cat. SH30070.03) and 2 mM L-glutamine (Invitrogen, cat. 25030081). The pooled donor HUVEC were cultured in endothelial cell growth medium 2 (PromoCell, Heidelberg, Germany, cat. C-22011) and the hMSC were cultured in mesenchymal stem cell growth medium 2 (PromoCell, cat. C-28009). For all experiments, HUVEC and hMSC were used at passages </=5, while the malignant cell lines were used at passages </=15. […]

[1] = second compound 0.1 µM, first compound 0.0316 µM
[2] = second compound 0.1 µM, first compound 0.1 µM
[3] = second compound 0.1 µM, first compound 0.316 µM
[4] = second compound 0.1 µM, first compound 1 µM
[5] = second compound 0.1 µM, first compound 3.16 µM
[6] = second compound 0.1 µM, first compound 10 µM
[7] = second compound 0.316 µM, first compound 0.0316 µM
[8] = second compound 0.316 µM, first compound 0.1 µM
[9] = second compound 0.316 µM, first compound 0.316 µM
[10] = second compound 0.316 µM, first compound 1 µM
[11] = second compound 0.316 µM, first compound 3.16 µM
[12] = second compound 0.316 µM, first compound 10 µM
[13] = second compound 1 µM, first compound 0.0316 µM
[14] = second compound 1 µM, first compound 0.1 µM
[15] = second compound 1 µM, first compound 0.316 µM
[16] = second compound 1 µM, first compound 1 µM
[17] = second compound 1 µM, first compound 3.16 µM
[18] = second compound 1 µM, first compound 10 µM
[19] = second compound 3.16 µM, first compound 0.0316 µM
[20] = second compound 3.16 µM, first compound 0.1 µM
[21] = second compound 3.16 µM, first compound 0.316 µM
[22] = second compound 3.16 µM, first compound 1 µM
[23] = second compound 3.16 µM, first compound 3.16 µM
[24] = second compound 3.16 µM, first compound 10 µM
[25] = second compound 10 µM, first compound 0.0316 µM
[26] = second compound 10 µM, first compound 0.1 µM
[27] = second compound 10 µM, first compound 0.316 µM
[28] = second compound 10 µM, first compound 1 µM
[29] = second compound 10 µM, first compound 3.16 µM
[30] = second compound 10 µM, first compound 10 µM
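Further: viability read after seven days of drug exposure.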

For CC1(C)CCC(CN2CCN(c3ccc(C(=O)NS(=O)(=O)c4ccc(NCC5CCOCC5)c([N+](=O)[O-])c4)c(Oc4cnc5[nH]ccc5c4)c3)CC2)=C(c2ccc(Cl)cc2)C1 + CNCc1ccccc1-c1csc(C(C)Nc2nc(C)nc3cc(OC)c(OC)cc23)c1, the IC50 (second compound 0.1 µM) was 6160 nM, the IC50 (second compound 0.316 µM) was 5210 nM and the IC50 (second compound 1 µM) was 4130 nM. The IC50 (second compound 3.16 µM) was less than 31.6 nM, the IC50 (second compound 10 µM) was less than 31.6 nM and the viability, T/C [1] was 98.8%. It also gave a viability, T/C [2] of 98.8%, a viability, T/C [3] of 97.2% and a viability, T/C [4] of 102%. The viability, T/C [5] was 104%, the viability, T/C [6] was 13.4% and the viability, T/C [7] was 90.2%. The viability, T/C [8] was 94.1%, the viability, T/C [9] was 93.4% and the viability, T/C [10] was 89.2%. It also gave a viability, T/C [11] of 80.8%, a viability, T/C [12] of 9.94% and a viability, T/C [13] of 91.1%. It also gave a viability, T/C [14] of 104%, a viability, T/C [15] of 103% and a viability, T/C [16] of 84.5%. For the same compound, the viability, T/C [17] was 64.2%, the viability, T/C [18] was 5.98% and the viability, T/C [19] was 0.76%. For the same compound, the viability, T/C [20] was 3.72%, the viability, T/C [21] was 43.5% and the viability, T/C [22] was 1.04%. For the same compound, the viability, T/C [23] was 1.54%, the viability, T/C [24] was 0.73% and the viability, T/C [25] was 0.3%. The viability, T/C [26] was 0.27%, the viability, T/C [27] was 0.23% and the viability, T/C [28] was 0.22%. For the same compound, the viability, T/C [29] was 0.67% and the viability, T/C [30] was 0.32%.
O=C(c1cc(Cc2n[nH]c(=O)c3ccccc23)ccc1F)N1CCN(C(=O)C2CC2)CC1 + CNCc1ccccc1-c1csc(C(C)Nc2nc(C)nc3cc(OC)c(OC)cc23)c1 was tested, and the IC50 (second compound 0.1 µM) was greater than 10000 nM, the IC50 (second compound 0.316 µM) was greater than 10000 nM and the IC50 (second compound 1 µM) was greater than 10000 nM. It also gave an IC50 (second compound 3.16 µM) of less than 31.6 nM, an IC50 (second compound 10 µM) of less than 31.6 nM and a viability, T/C [1] of 93.9%. The viability, T/C [2] was 106%, the viability, T/C [3] was 91% and the viability, T/C [4] was 88.3%. The viability, T/C [5] was 72.7%, the viability, T/C [6] was 55.7% and the viability, T/C [7] was 86.7%. For the same compound, the viability, T/C [8] was 100%, the viability, T/C [9] was 94.5% and the viability, T/C [10] was 88.8%. For the same compound, the viability, T/C [11] was 72.1%, the viability, T/C [12] was 54.3% and the viability, T/C [13] was 92.3%. The viability, T/C [14] was 98.1%, the viability, T/C [15] was 99.6% and the viability, T/C [16] was 94.5%. It also gave a viability, T/C [17] of 70.7%, a viability, T/C [18] of 51.9% and a viability, T/C [19] of 0.34%. For the same compound, the viability, T/C [20] was 0.17%, the viability, T/C [21] was 0.17% and the viability, T/C [22] was 0.65%. The viability, T/C [23] was 0.18%, the viability, T/C [24] was 0.2% and the viability, T/C [25] was 0.16%. For the same compound, the viability, T/C [26] was 0.14%, the viability, T/C [27] was 0.16% and the viability, T/C [28] was 0.16%. For the same compound, the viability, T/C [29] was 0.18% and the viability, T/C [30] was 0.23%.
CC(=O)Nc1cccc(-n2c(=O)n(C3CC3)c(=O)c3c(Nc4ccc(I)cc4F)n(C)c(=O)c(C)c32)c1 + C=CC(=O)N1CCN(c2nc(OCC3CCCN3C)nc3c2CCN(c2cccc4cccc(C)c24)C3)CC1CC#N gave an IC50 (second compound 0.0316 µM) of 0.288 nM, an IC50 (second compound 0.1 µM) of 0.289 nM and an IC50 (second compound 0.316 µM) of 0.194 nM. For the same compound, the IC50 (second compound 1 µM) was 0.245 nM, the IC50 (second compound 3.16 µM) was less than 0.1 nM and the viability, T/C (second compound 0.0316 µM, first compound 0.0001 µM) was 74.2%. The viability, T/C (second compound 0.0316 µM, first compound 0.000316 µM) was 44.9%, the viability, T/C (second compound 0.0316 µM, first compound 0.001 µM) was 34.6% and the viability, T/C (second compound 0.0316 µM, first compound 0.00316 µM) was 26.5%. It also gave a viability, T/C (second compound 0.0316 µM, first compound 0.01 µM) of 20.1%, a viability, T/C (second compound 0.0316 µM, first compound 0.0316 µM) of 15% and a viability, T/C (second compound 0.1 µM, first compound 0.0001 µM) of 61.9%. It also gave a viability, T/C (second compound 0.1 µM, first compound 0.000316 µM) of 51.6%, a viability, T/C (second compound 0.1 µM, first compound 0.001 µM) of 30.3% and a viability, T/C (second compound 0.1 µM, first compound 0.00316 µM) of 23.8%. For the same compound, the viability, T/C (second compound 0.1 µM, first compound 0.01 µM) was 18.4%, the viability, T/C [1] was 10.5% and the viability, T/C (second compound 0.316 µM, first compound 0.0001 µM) was 57.5%. For the same compound, the viability, T/C (second compound 0.316 µM, first compound 0.000316 µM) was 46.9%, the viability, T/C (second compound 0.316 µM, first compound 0.001 µM) was 27.5% and the viability, T/C (second compound 0.316 µM, first compound 0.00316 µM) was 21.7%. The viability, T/C (second compound 0.316 µM, first compound 0.01 µM) was 18.9%, the viability, T/C [7] was 8.09% and the viability, T/C (second compound 1 µM, first compound 0.0001 µM) was 69.7%. The viability, T/C (second compound 1 µM, first compound 0.000316 µM) was 43.6%, the viability, T/C (second compound 1 µM, first compound 0.001 µM) was 27.8% and the viability, T/C (second compound 1 µM, first compound 0.00316 µM) was 24.3%. For the same compound, the viability, T/C (second compound 1 µM, first compound 0.01 µM) was 18.2%, the viability, T/C [13] was 9.76% and the viability, T/C (second compound 3.16 µM, first compound 0.0001 µM) was 3.74%. It also gave a viability, T/C (second compound 3.16 µM, first compound 0.000316 µM) of 5.29%, a viability, T/C (second compound 3.16 µM, first compound 0.001 µM) of 0.31% and a viability, T/C (second compound 3.16 µM, first compound 0.00316 µM) of 1.92%. The viability, T/C (second compound 3.16 µM, first compound 0.01 µM) was 0.67% and the viability, T/C [19] was 0.24%.
